# Reference: patent US8415357B2 (Canbas Co., Ltd., priority 2007, dated 2013)
# Entries after “also recorded” stand apart in the source; their conditions may differ.
# Legend:
# Jurkat cells = assay: Adaptation to G2 cell cycle arrest (G1 increment) in X-ray pre-arrested Jurkat cells, flow cytometry; assay type: cell-based, human; settings: for IC50: Homo sapiens, Jurkat, 24 h, concentration causing half-maximal increase of % cells in G1 phase (G1 increment), Jurkat pre-arrested by 10 Gy X-ray, 24 hours with compound
# Procedure, shortened: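 Jurkat cells were G2-arrested by 10 Gy X-ray irradiation and held 24 h in 10% FCS/RPMI1640 at 37 °C. They were then exposed to compounds for a further 24 h. Propidium iodide staining and flow cytometry gave the %G1 cells, and IC50 (μM) is the concentration giving a half-maximal G1 increment.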
# ARH-77 cells = assay: Survival of SCID mice with xenografts of ARH-77 cells; settings: for cytotoxicity against normal cells (the mouse graft host): administered intraperitoneally or orally to SCID mice with ARH-77 xenografts
# Protocol: For the experiment shown in FIG. 6, mice received 1.9×10^6 ARH-77 cells by intraperitoneal transplantation. […] Mice treated with dexamethasone (“Dexa”) received an intraperitoneal injection of 2 mg/kg dexamethasone. Vehicle treated control animals received intraperitoneal vehicle injection. Each injection was performed on day 1, day 2 and day 3 after transplantation of ARH-77 cells.
# For the experiment shown in FIG. 7, mice received 0.8×10^6 ARH-77 cells by intraperitoneal transplantation.
# For the experiment shown in FIG. 8, mice received 4.1×10^6 ARH-77 cells by intraperitoneal transplantation.
Compound,IC50 (Jurkat cells; Table 3),other results
"CC1=C(CCC(=O)OC(C)(C)C)C(=O)N(Nc2ccc(C(F)(F)F)c(Cl)n2)C1=O [Compound S01860, tert-butyl 3-(1-{[6-chloro-5-(trifluoromethyl)(2-pyridyl)]amino}-4-methyl-2,5-dioxoazolin-3-yl) propanoate]",,"IC50 (Jurkat cells; Table 2): 30 nM; percentage of cells in G1 phase (Jurkat cells; Jurkat cells pre-arrested at G2 by X-ray 10 Gy, 0.019 μM to 0.625 μM, 24 hours): dose-dependent increase in the percentage of cells in G1 phase; also recorded: significant increase in the number of G1 cells; first decrease in survival, days after transplantation (ARH-77 cells; 0.8×10^6 ARH-77 cells i.p., single oral administration 750 mg/kg on Day 1): 70 days; survival at 85 days (ARH-77 cells; 0.8×10^6 ARH-77 cells i.p., single oral administration 750 mg/kg on Day 1, control about 20%): ~90%; cytotoxicity against normal cells (the mouse graft host) (ARH-77 cells): no detectable cytotoxicity against normal cells"
"CC1=C(C)C(=O)N(Nc2nc(Cl)c(C(F)(F)F)cc2Br)C1=O [Compound S01981, 1-{[3-bromo-6-chloro-5-(trifluoromethyl)(2-pyridyl)]amino}-3,4-dimethylazoline-2,5-dione]",,IC50 (Jurkat cells; Table 2): 78 nM
"CC1=C(CC(=O)OC(C)(C)C)C(=O)N(Nc2ccc(C(F)(F)F)c(Cl)n2)C1=O [Compound S02225, tert-butyl 2-(1-{[6-chloro-5-(trifluoromethyl) (2-pyridyl)]amino}-4-methyl-2,5-dioxoazolin-3-yl)acetate]",30 nM,
"CCC(C)OC(=O)CCC1=C(C)C(=O)N(Nc2ccc(C(F)(F)F)c(Cl)n2)C1=O (stereo not shown) [Compound S02264, Methylpropyl 3-(1-{[6-chloro-5-(trifluoromethyl) (2-pyridyl)]amino}-4-methyl-2,5-dioxoazolin-3-yl) propanoate]",40 nM,
"CC1=C(COCCC(C)C)C(=O)N(Nc2ccc(C(F)(F)F)c(Cl)n2)C1=O [Compound S03405, 1-{[6-chloro-5-(trifluoromethyl)(2-pyridyl)]amino}-4-methyl-3-[(3-methylbutoxy)methyl]azoline-2,5-dione]",< 19 nM,cytotoxicity against normal cells (the mouse graft host) (ARH-77 cells): no detectable cytotoxicity against normal cells
"CCCCOCC1=C(C)C(=O)N(Nc2ccc(C(F)(F)F)c(Cl)n2)C1=O [Compound S03518, 3-(butoxymethyl)-1-{[6-chloro-5-(trifluoromethyl)(2-pyridyl)]amino}-4-methylazoline-2,5-dione]",20 nM,cytotoxicity against normal cells (the mouse graft host) (ARH-77 cells): no detectable cytotoxicity against normal cells
"CC1=C(COCCC(C)(C)C)C(=O)N(Nc2ccc(C(F)(F)F)c(Cl)n2)C1=O [Compound S03747, 3-[(3,3-dimethylbutoxy)methyl]-1-{[6-chloro-5-(trifluoromethyl) (2-pyridyl)]amino}-4-methylazoline-2,5-dione]",< 19 nM,cytotoxicity against normal cells (the mouse graft host) (ARH-77 cells): no detectable cytotoxicity against normal cells
"CC1=C(COC(C)(C)C)C(=O)N(Nc2ccc(C(F)(F)F)c(Cl)n2)C1=O [Compound S03873, 4-[(tert-butoxy)methyl]-1-{[6-chloro-5-(trifluoromethyl)(2-pyridyl)]amino}-3-methylazoline-2,5-dione]",20 nM,
"CC1=C(CCOCCC(C)C)C(=O)N(Nc2ccc(C(F)(F)F)c(Cl)n2)C1=O [Compound S03956, 1-{[6-chloro-5-(trifluoromethyl)(2-pyridyl)]amino}-4-methyl-3-[2-(3-methylbutoxy)ethyl]azoline-2,5-dione]",156 nM,
"CC1=C(COC(C)CC(C)C)C(=O)N(Nc2ccc(C(F)(F)F)c(Cl)n2)C1=O (stereo not shown) [Compound S03964, 4-[(1,3-dimethylbutoxy)methyl]-1-{[6-chloro-5-(trifluoromethyl) (2-pyridyl)]amino}-3-methylazoline-2,5-dione]",40 nM,

# Second part, led by results:
IC50 (Jurkat cells; Table 3),Compound,other results
40 nM,"CCOCC1=C(C)C(=O)N(Nc2ccc(C(F)(F)F)c(Cl)n2)C1=O [Compound S02366, 1-{[6-chloro-5-(trifluoromethyl) (2-pyridyl)]amino}-3-(ethoxymethyl)-4-methylazoline-2,5-dione]",
156 nM,"CCCCC1=C(C)C(=O)N(Nc2ccc(C(F)(F)F)c(Cl)n2)C1=O [Compound S03448, 3-butyl-1-{[6-chloro-5-(trifluoromethyl) (2-pyridyl)]amino}-4-methylazoline-2,5-dione]",
156 nM,"CC1=C(CCC2(C)OCCO2)C(=O)N(Nc2ccc(C(F)(F)F)c(Cl)n2)C1=O [Compound S03456, 1-{[6-chloro-5-(trifluoromethyl) (2-pyridyl)]amino}-4-methyl-3-[2-(2-methyl (1,3-dioxolan-2-yl))ethyl]azoline-2,5-dione]",
60 nM,"CCCC(O)CCC1=C(C)C(=O)N(Nc2ccc(C(F)(F)F)c(Cl)n2)C1=O (stereo not shown) [Compound S03552, 1-{[6-chloro-5-(trifluoromethyl)(2-pyridyl)]amino}-4-(3-hydroxyhexyl)-3-methylazoline-2,5-dione]",
120 nM,"COCCOCC1=C(C)C(=O)N(Nc2ccc(C(F)(F)F)c(Cl)n2)C1=O [Compound S03742, 1-{[6-chloro-5-(trifluoromethyl)(2-pyridyl)]amino}-3-[(2-methoxyethoxy)methyl]-4-methylazoline-2,5-dione]",
60 nM,"CCC(O)CCC1=C(C)C(=O)N(Nc2ccc(C(F)(F)F)c(Cl)n2)C1=O (stereo not shown) [Compound S03745, 1-{[6-chloro-5-(trifluoromethyl)(2-pyridyl)]amino}-4-(3-hydroxypentyl)-3-methylazoline-2,5-dione]",
60 nM,"CC1=C(CCOCC(C)C)C(=O)N(Nc2ccc(C(F)(F)F)c(Cl)n2)C1=O [Compound S03955, 1-{[6-chloro-5-(trifluoromethyl)(2-pyridyl)]amino}-4-methyl-3-[2-(2-methylpropoxy)ethyl]azoline-2,5-dione]",
40 nM,"CCOCCC1=C(C)C(=O)N(Nc2ccc(C(F)(F)F)c(Cl)n2)C1=O [Compound S03960, 1-{[6-chloro-5-(trifluoromethyl)(2-pyridyl)]amino}-3-(2-ethoxyethyl)-4-methylazoline-2,5-dione]",
< 19 nM,"CC1=C(COCC(C)(C)C)C(=O)N(Nc2ccc(C(F)(F)F)c(Cl)n2)C1=O [Compound S03962, 3-[(2,2-dimethylpropoxy)methyl]-1-{[6-chloro-5-(trifluoromethyl) (2-pyridyl)]amino}-4-methylazoline-2,5-dione]",
< 19 nM,"CC1=C(COCC(C)C)C(=O)N(Nc2ccc(C(F)(F)F)c(Cl)n2)C1=O [Compound S03963, 1-{[6-chloro-5-(trifluoromethyl)(2-pyridyl)]amino}-4-methyl-3-[(2-methylpropoxy)methyl]azoline-2,5-dione]",
40 nM,"CCCOCCC1=C(C)C(=O)N(Nc2ccc(C(F)(F)F)c(Cl)n2)C1=O [Compound S04034, 1-{[6-chloro-5-(trifluoromethyl)(2-pyridyl)]amino}-3-methyl-4-(2-propoxyethyl)azoline-2,5-dione]",
